Results reported in patent US11903927B2, “Combination treatment of cancer” (Scandion Oncology A/S, priority 2016, dated 2024).
Where two headings read alike, the source gives them in different places.

Legend:
[1] = tested on: human HT29 colon cancer cell line; assay: HT29 colon tumour xenograft; assay type: in vivo; conditions: mice; NS3728 80 mg/kg PO, paclitaxel 5 mg/kg IP, 5-flourouracil 30 mg/kg IP, alone or combined; dosing days 4-8, 11-15, 18-22
Method: The in vivo antitumor effect of NS3728 on the human HT29 colon cancer cell line were tested as monotherapy (80 mg/kg) respectively in combination with paclitaxel (5 mg/kg) or 5-flourouracil (30 mg/kg) in two independent experimental series. NS3728 was given per oral (PO), whereas both paclitaxel and 5-flourouracil were dosed intraperitoneally (IP) by injection.
The dosing occurred in periods (days 4-8; days 11-15, days 18-22) with daily dosing of both NS3728 and cytotoxic drug, interrupted by dosing holidays.

VRAC = conditions: read-out: IC50 as VRAC blocker; cited from earlier work
[2] = tested on: Docetaxel resistant MDA-MB-231 breast cancer cells; assay: MTT cell viability, docetaxel resistant MDA-MB-231; assay type: cell-based, human
Source text: (§1) Breast cancer is a heterogenous disease and at least 6 subtypes of breast cancer have been described previously by Soerlie et al (PMID: 11553815). As a major difference, breast cancer can be divided into hormone (estrogen and progesterone) receptor positive and hormone receptor negative breast cancer. We have in our experiments included these two major subtypes. We established human breast cancer cell lines that are resistant to the chemotherapy docetaxel as described in Hansen et al 2015 (PMID: 25596703). These cell lines are MCF-7 and MDA-MB-231.
(§2) Subsequently, NS3728, docetaxel or combinations of the two drugs were added for 72 hours before cell viability was determined. […] Each data point was carried out in triplicate.

[3] = tested on: docetaxel resistant MCF-7 breast cancer cells; assay: MTT cell viability, docetaxel resistant MCF-7; assay type: cell-based, human; conditions: 72 hours
Source text: as §1, §2

[4] = tested on: fulvestrant-resistant MCF-7/LCC9 cells; assay: MTT cell viability, fulvestrant resistant MCF-7/LCC9; assay type: cell-based, human
Method: These cell lines are MCF-7/LCC2. We also established human breast cancer cell lines that are resistant to the anti-estrogen Fulvestrant as described in Brünner et al 1997 (PMID: 9270017). MCF-7 is an estrogen and progesterone receptor positive cell line.
as §2

[5] = tested on: SN-38 resistant LoVo CRC cancer cells; assay: cells; conditions: Homo sapiens, 48 h, read-out: cell viability
Method: (§5) The cells were seeded in 96-well plates (10,000 cells/well) and allowed to adhere for 24 hours. Subsequently, NS3728, OXP, SN-38 or combinations of the drugs were added for 48 hours before cell viability was determined. All values are expressed in percentage of untreated cells (named: “no treatment”). “DMSO” refers to the solvent control as both NS3728 and chemotherapeutic drugs are diluted in DMSO. Thus, the DMSO (Dimethyl sulfoxide) control is included to investigate any potential effect on cell viability by the organic solvent. Each data point was carried out in triplicate.

[6] = Method: The in vivo anti-tumor effect of NS3728 on C6 glioma cells given either as monotherapy (40 mg/kg/day) or in combination with temozolomide (Temodal, 25 or 5 mg/kg/day) was tested in two separate experiments, using either the xenograft method or the subcutaneous air sac model (SAS; see Lichtenberg, J., P. J. Hjarnaa, P. E. Kristjansen, D. Hansen & L. Binderup: The rat subcutaneous air sac mode: A quantitative assay of antiangiogenesis in induced vessels Pharmacology & Toxicology, 1999, 84, 34-40).
In the first study 5 million C6 rat glioma cells were inoculated into the flank of Fisher rats.

[7] = tested on: SN-38 resistant LoVo CRC cancer cells
Method: as §5

[8] = tested on: SN-38 resistant HCT116 CRC cancer cells; assay: MTT cell viability, SN-38 resistant HCT116; assay type: cell-based, human
Method: (§3) These cell lines are HCT116, HT29 and LoVo.
(§4) Each data point was carried out in triplicate.

cancer cells = conditions: in vitro; cited from earlier work
[9] = tested on: oxaliplatin resistant HT29 CRC cancer cells; assay: MTT cell viability, oxaliplatin resistant HT29; assay type: cell-based, human
Method: as §3, §4

C6 glioma cells = assay: C6 glioma subcutaneous air sac (SAS) model; assay type: in vivo, rat; conditions: 2.5 million C6 cells on air sac membrane; NS3728 40 mg/kg/day oral, temozolomide 5 mg/kg/day, alone or combined; 10 days of treatment
Method: In the second study the tumour growth was retarded by inoculating only half the number of cells (2.5 million of C6 cells per animal) and making use of the subcutaneous air sac (SAS) technique. In brief, the rats were anaesthetized with CO2/O2 and 10-15 ml of air was introduced dorsally by subcutaneous injections to produce an air sac located approximately 4-5 cm behind the head. The wall of the air sac became progressively thicker with time and after 10-14 days a sufficient lining of cells with the appearance of a transparent membrane had been established. The C6 glioma cells were inoculated in the rats directly on the membrane. The treatment was started at the day of inoculation and the study was terminated on day 10 of treatment.

[10] = tested on: tamoxifen-resistant MCF-7/LCC2 cells; assay: MTT cell viability, tamoxifen resistant MCF-7/LCC2; assay type: cell-based, human; conditions: 40 μM NS3728, 72 hours
Method: These cell lines are MCF-7/LCC2. We also established human breast cancer cell lines that are resistant to the anti-estrogen Fulvestrant as described in Brünner et al 1997 (PMID: 9270017). MCF-7 is an estrogen and progesterone receptor positive cell line. […] Subsequently, NS3728, docetaxel or combinations of the two drugs were added for 72 hours before cell viability was determined. […] Each data point was carried out in triplicate.

[11] = tested on: SN-38 resistant HT29 CRC cancer cells
Method: as §5

Method for HCT116 parental cells: (§6) The cells were seeded in 96-well plates (10,000 cells/well) and allowed to adhere for 24 hours. Subsequently, NS3728, OXP, SN-38 or combinations of NS3728 with one of the cytotoxic drugs were added for 48 hours before cell viability was determined. All values are expressed in percentage of untreated cells (named: “no treatment”). “DMSO” refers to the solvent control as both NS3728 and chemotherapeutic drugs are diluted in DMSO. Thus, the DMSO (Dimethyl sulfoxide) control is included to investigate any potential effect on cell viability by the organic solvent. Each data point was carried out in triplicate.
Method for HT29 parental cells: as §6
Method for LoVo parental cells: as §6

For `O=c1[nH]cc(F)c(=O)[nH]1` [5-flourouracil, 5-fluorouracil], the “tumour volume growth curves” value [1] was “mild (non-significant) depression of the growth curves”.
In the case of `O=S(=O)(O)c1cc(N=C=S)ccc1C=Cc1ccc(N=C=S)cc1S(=O)(=O)O` [DIDS], the IC50 (VRAC) is given as 26000 nM.
With `CC(=O)O[C@@]12CO[C@@H]1C[C@H](O)[C@@]1(C)C(=O)[C@H](O)C3=C(C)[C@@H](OC(=O)[C@H](O)[C@@H](NC(=O)OC(C)(C)C)c4ccccc4)C[C@@](O)([C@@H](OC(=O)c4ccccc4)[C@H]21)C3(C)C` [Docetaxel, docetaxel, reference compound] the cell viability ([2]; 150 nM Docetaxel, 72 hours) was “about 50 % of untreated controls” and the cell viability ([3]; 65 nM Docetaxel monotherapy) was “did not decrease cell viability”.
For `C[C@]12CC[C@@H]3c4ccc(O)cc4C[C@@H](CCCCCCCCC[S+]([O-])CCCC(F)(F)C(F)(F)F)[C@H]3[C@@H]1CC[C@@H]2O` (stereo partly drawn) [Fulvestrant, fulvestrant, reference compound], the cell viability ([4]; 1 μM Fulvestrant, 72 hours) was “no effect on the cell viability”.
For `O=C(O)c1cc([N+](=O)[O-])ccc1NCCCc1ccccc1` [NPPB], the IC50 (VRAC) is listed as 21000 nM.
In the case of `O=C(Nc1cccc(C(F)(F)F)c1)Nc1ccc(Br)cc1-c1nnn[nH]1` [NS3623], the IC50 (VRAC) is listed as 1800 nM.
With `O=C(Nc1cc(C(F)(F)F)cc(C(F)(F)F)c1)Nc1ccc(Br)cc1-c1nnn[nH]1` [NS3728] the viability at 40 µM [5] was roughly 57%, the “tumour growth rate / anti-tumor effect” value ([6]; 5 million C6 cells, flank of Fisher rats, NS3728 40 mg/kg/day oral, temozolomide 25 mg/kg/day, alone or combined, terminated day 4 of treatment) was “neither NS3728 (40 mg/kg/day) nor temozolomide (25 mg/kg/day) exhibited any significant anti-tumor effect” and the cell viability ([7]; 30 μM NS3728, 48 hours) was “about 80 % of untreated cells”. For the same compound, the cell viability ([7]; 50 μM NS3728, 48 hours) was “about 50 % of untreated cells”, the cell viability ([8]; 30 μM NS3728, 48 hours) was “about 85 % of untreated cells” and the cell viability ([2]; 50 μM NS3728, 72 hours) was “did not decrease cell viability”. The cell viability ([4]; 40 μM NS3728, 72 hours) was 60 % of untreated control, the “inhibition of cisplatin mediated apoptosis” value (cancer cells) was “inhibit cisplatin mediated apoptosis” and the “tumour volume growth curves” value [1] was “mild (non-significant) depression of the growth curves”. For the same compound, the cell viability (HT29 parental cells; 40 μM NS3728, 48 hours) was “about 90 % of untreated cells”, the cell viability (HT29 parental cells; 50 μM NS3728, 48 hours) was “about 77 % of untreated cells” and the cell viability ([9]; 20 μM NS3728, 48 hours) was “about 85 % of untreated cells”. For the same compound, the IC50 (VRAC) was 400 nM, the cell viability (HCT116 parental cells; 40 μM NS3728, SN-38 experiment, 48 hours) was “about 50 % of untreated cells” and the cell viability (HCT116 parental cells; 50 μM NS3728, SN-38 experiment, 48 hours) was “about 50 % of untreated cells”. The cell viability (HCT116 parental cells; NS3728 alone in the OXP experiment (concentration not given in the sentence), 48 hours) was “about 50 % of untreated cells”, the “tumour growth inhibition as measured by tumour weight” value (C6 glioma cells) was “significant inhibition of tumour growth” and the cell viability [10] was 70 % of untreated control. The cell viability (LoVo parental cells; 40 μM NS3728, 48 hours) was “about 45 % of untreated cells”, the cell viability (LoVo parental cells; 50 μM NS3728, 48 hours) was “about 38 % of untreated cells” and the cell viability ([3]; 40 μM NS3728 monotherapy) was “did not decrease cell viability”. For the same compound, the cell viability ([11]; 30 μM NS3728, 48 hours (increased viability)) was “about 120 % of untreated cells”, the cell viability ([11]; 40 μM NS3728, 48 hours) was “no effect on cell viability” and the cell viability ([11]; 50 μM NS3728, 48 hours) was “about 85 % of untreated cells”.
For `O=C(Nc1ccc([N+](=O)[O-])cc1)Nc1ccc(Br)cc1-c1nnn[nH]1` [NS3749], the IC50 (VRAC) is given as 1400 nM.
With `O=C1[O][Pt]2([NH][C@@H]3CCCC[C@H]3[NH]2)[O]C1=O` [OXP, oxaliplatin, reference compound] the cell viability (HCT116 parental cells; OXP alone, 48 hours) was “dose-dependently decreased cell viability”.
For `CCc1c2c(nc3ccc(O)cc13)-c1cc3c(c(=O)n1C2)COC(=O)[C@]3(O)CC` [SN-38, reference compound], the cell viability ([7]; 0.16 μM SN-38, 48 hours) was “about 78 % of untreated cells”, the cell viability ([8]; 4 μM SN-38, 48 hours) was “almost no effect on cell viability” and the cell viability (HT29 parental cells; 0.032 μM SN-38, 48 hours) was “about 77 % of untreated cells”. For the same compound, the cell viability ([9]; 0.1 μM SN-38, 48 hours) was “about 43 % of untreated cells”, the cell viability (HCT116 parental cells; 0.16 μM SN-38, 48 hours) was “about 50 % of untreated cells” and the cell viability (LoVo parental cells; 0.0064 μM SN-38, 48 hours) was “about 53 % of untreated cells”. For the same compound, the cell viability ([11]; 0.8 μM SN-38, 48 hours) was “about 78 % of untreated cells”.
In the case of `CC(=O)O[C@H]1C(=O)[C@@]2(C)[C@H]([C@H](OC(=O)c3ccccc3)[C@]3(O)C[C@H](OC(=O)[C@H](O)[C@@H](NC(=O)c4ccccc4)c4ccccc4)C(C)=C1C3(C)C)[C@]1(OC(C)=O)CO[C@@H]1C[C@@H]2O` [paclitaxel], the “tumour volume growth curves” value [1] is reported as “mild (non-significant) depression of the growth curves”.
In the case of `Cn1nnc2c(C(N)=O)ncn2c1=O` [temozolomide, reference compound], the “signs of toxicity (subdued behaviour, hunched appearance, loss of body weight)” value ([6]; all animals treated with temozolomide 25 mg/kg/day) is reported as “Clear signs of toxicity”.
